Literature values as cited in paper doi:10.1101/2025.09.30.679517v1 (bioRxiv, 2025).

Details: human, in vivo, po

COc1ccc2c(c1)[C@]13CCCC[C@@H]1[C@H](C2)N(C)CC3 [dextromethorphan]
primary endpoints: reached all primary endpoints
tolerability: well-tolerated by patients
